# Assay results as given in article PMC3522743, “Wax Ester Synthesis is Required for Mycobacterium tuberculosis to Enter In Vitro Dormancy” (PLoS ONE, 2012).
# Tests used:
# FCR2 (Rv1543) = FCR2 (Rv1543) (Mycobacterium tuberculosis, UniProt P9WGS1)
# FCR1 (Rv3391) = biological target: T1, FCR1 (Rv3391) (Mycobacterium tuberculosis, UniProt O50417)
# T1 construct: gene acrA1
# T1 sequence (O50417 entry or part of it): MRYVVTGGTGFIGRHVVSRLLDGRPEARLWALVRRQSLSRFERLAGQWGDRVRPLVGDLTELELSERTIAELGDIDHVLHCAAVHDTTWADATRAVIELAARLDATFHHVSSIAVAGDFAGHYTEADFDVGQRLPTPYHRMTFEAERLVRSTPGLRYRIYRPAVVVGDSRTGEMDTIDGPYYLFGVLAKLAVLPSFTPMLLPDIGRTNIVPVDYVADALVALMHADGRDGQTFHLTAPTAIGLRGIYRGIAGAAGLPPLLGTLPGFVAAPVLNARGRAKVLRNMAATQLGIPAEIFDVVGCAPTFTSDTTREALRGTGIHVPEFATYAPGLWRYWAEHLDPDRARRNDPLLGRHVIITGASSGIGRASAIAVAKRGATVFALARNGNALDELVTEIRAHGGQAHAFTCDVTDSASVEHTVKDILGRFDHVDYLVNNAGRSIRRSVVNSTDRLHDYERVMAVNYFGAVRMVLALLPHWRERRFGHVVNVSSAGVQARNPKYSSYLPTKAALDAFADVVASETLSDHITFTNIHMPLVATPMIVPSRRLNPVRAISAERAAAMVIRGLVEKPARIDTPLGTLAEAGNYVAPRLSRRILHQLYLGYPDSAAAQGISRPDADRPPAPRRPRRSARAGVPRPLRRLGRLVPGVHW
# Sequence of FCR2 (Rv1543) (P9WGS1 whole entry): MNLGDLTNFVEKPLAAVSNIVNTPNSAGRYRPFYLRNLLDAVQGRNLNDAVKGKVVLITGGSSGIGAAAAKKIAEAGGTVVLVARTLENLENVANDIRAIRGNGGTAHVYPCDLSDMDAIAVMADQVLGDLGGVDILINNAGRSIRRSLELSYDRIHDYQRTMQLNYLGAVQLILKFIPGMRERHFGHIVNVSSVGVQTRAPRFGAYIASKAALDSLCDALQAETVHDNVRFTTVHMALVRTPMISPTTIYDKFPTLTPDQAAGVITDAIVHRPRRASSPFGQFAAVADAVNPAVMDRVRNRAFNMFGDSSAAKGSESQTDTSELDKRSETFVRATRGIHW
Compound,"14C product formation, TLC and scintillation counting, E. coli lysate (FCR2 (Rv1543))","14C product formation, TLC and scintillation counting, E. coli lysate (FCR1 (Rv3391))"
NC(=O)C1=CN([C@@H]2O[C@H](COP(=O)(O)OP(=O)(O)OC[C@H]3O[C@@H](n4cnc5c(N)ncnc54)[C@H](OP(=O)(O)O)[C@@H]3O)[C@@H](O)[C@H]2O)C=CC1 [NADPH],Both FCR1 and FCR2 exhibited strong preference for NADPH as a cofactor,Both FCR1 and FCR2 exhibited strong preference for NADPH as a cofactor
CCCCCCCC/C=C\CCCCCCCC(=O)SCCNC(=O)CCNC(=O)[C@H](O)C(C)(C)COP(=O)(O)OP(=O)(O)OC[C@H]1O[C@@H](n2cnc3c(N)ncnc32)[C@H](O)[C@@H]1OP(=O)(O)O [oleoyl-CoA],"Both of these proteins showed typical substrate saturation with oleoyl-CoA (Fig. 3C, G).","Both of these proteins showed typical substrate saturation with oleoyl-CoA (Fig. 3C, G)."
